Values of other authors, collected in patent publication US20040039052A1, “Urinary incontinence therapy” (priority 1997, published 2004).

Experiments:
bladder afferents = details: rats; intravesicular 10-100 μmol; cited from earlier work
[1] = system: patients with detrusor hyperreflexia (DH); details: intravesical instillation; cited from earlier work
[2] = system: vanilloid receptor-mediated release of tachykinins in the rat urinary bladder; details: rats with experimentally induced hypertrophy; cited from earlier work

SMILES: COc1cc(CNC(=O)CCCC/C=C/C(C)C)ccc1O [CAP, capsaicin, reference compound]
- desensitization of bladder afferents (bladder afferents): long-lasting desensitization of bladder afferents
- period after treatment when symptoms deteriorate [1]: 2 to 4 days
- tolerability upon instillation [1]: intense burning and pain in the lower abdomen upon instillation
- reducing symptoms in rats having an experimentally induced hypertrophy [2]: effective in reducing symptoms
